According to patent US20210251963A1, “UREA DERIVATIVES FOR USE IN THE TREATMENT OF SUBJECTS WITH ELEVATED EXPRESSION AND/OR ACTIVITY OF SRPK1” (Scandion Oncology A/S, priority 2018, published 2021):

Experiments:
[1] = test system: HT29 SN38 resistant colon cancer cells; assay: Cell viability (MTT assay); type: cell-based; conditions: for cell viability, % of untreated control cells: HT29 SN38 resistant
Method: (§1) SN38 was applied to a SN38 sensitive colon cancer cell line (“HT29 parental”) and to a SN38 resistant colon cancer cell line (“HT29 SN38 resistant”).
(§2) The Log Concentration (μM) used are—1 for SN38. Data represents cell viability data (MTT assay) and cells were incubated with drugs for 72 hours.
The Log Concentrations (μM) used are—1 for SN38, and 1.5 for both Srpkin340 and Sphinx 31. Data represents cell viability data (MTT assay) and cells were incubated with drugs for 72 hours.

[2] = test system: HT29 parental colon cancer cells; assay: Cell viability (MTT assay); type: cell-based; conditions: SN38 Log Concentration (μM) -1, 72 hours
Method: as §1, §2

Compound	cell viability, % of untreated control cells ([1]; SN38 0.1 μM alone, 72 hours, Example 4) [%]	cell viability, % of untreated control cells ([1]; SN38 Log Concentration (μM) -1, 72 hours, Example 3) [%]	cell viability, % of untreated control cells [2] [%]	restoration of SN38 sensitivity in SN38 resistant HT29 colon cancer cells ([1]; Log Concentration (μM) 1.5 of inhibitor with SN38 -1, 72 hours)
CCc1c2c(nc3ccc(O)cc13)-c1cc3c(c(=O)n1C2)COC(=O)[C@]3(O)CC [SN38, reference compound]	75	73	27	–
O=C(Nc1cc(C(F)(F)F)ccc1N1CCN(Cc2ccccn2)CC1)c1ccc(-c2ccncc2)o1 [Sphinx31, reference compound]	–	–	–	can restore the SN38 sensitivity
